Several values for one entry are separate records, joined by “and”; a condition that tells them apart may be missing. Equal entries are not always repeated.
Legend:
Test in all cases: biochemical
[1] = biological target: wild type and amino acid substituted PPO enzyme (Amaranthus tuberculatus, UniProt Q0NZW5)
[2] = biological target: wild type and amino acid substituted PPO enzyme (Amaranthus tuberculatus, UniProt Q0NZW9, F204I/F420A/F457M/L400A); details: IC50 (M)
[3] = biological target: wild type and amino acid substituted PPO enzyme (Amaranthus tuberculatus, UniProt Q0NZW9, F204I/F420V); details: IC50 (M)
[4] = biological target: wild type and amino acid substituted PPO enzyme (Amaranthus tuberculatus, UniProt Q0NZW9, F204I/F420V/F457M); details: IC50 (M)
[5] = biological target: wild type and amino acid substituted PPO enzyme (Amaranthus tuberculatus, UniProt Q0NZW9, F204I/F420V/F457M/L400A/R128A); details: IC50 (M)
[6] = biological target: wild type and amino acid substituted PPO enzyme (Amaranthus tuberculatus, UniProt Q0NZW9, F204I/F420V/F457M/L400A/T208S); details: IC50 (M)
[7] = biological target: wild type and amino acid substituted PPO enzyme (Amaranthus tuberculatus, UniProt Q0NZW9, F204I/F420V/F457M/R128A); details: IC50 (M)
[8] = biological target: wild type and amino acid substituted PPO enzyme (Amaranthus tuberculatus, UniProt Q0NZW9, F204I/F420V/F457M/T208S); details: IC50 (M)
[9] = biological target: wild type and amino acid substituted PPO enzyme (Amaranthus tuberculatus, UniProt Q0NZW9, F204I/F420V/L400A); details: IC50 (M)
[10] = biological target: wild type and amino acid substituted PPO enzyme (Amaranthus tuberculatus, UniProt Q0NZW9, F204I/F420V/T208S); details: IC50 (M)
[11] = biological target: wild type and amino acid substituted PPO enzyme (Amaranthus tuberculatus, UniProt Q0NZW9, F204I/F457M); details: IC50 (M)
Chain of wild type and amino acid substituted PPO enzyme (Amaranthus tuberculatus, UniProt Q0NZW9, F204I/F457M) (Q0NZW9 1-534 F204I/F457M): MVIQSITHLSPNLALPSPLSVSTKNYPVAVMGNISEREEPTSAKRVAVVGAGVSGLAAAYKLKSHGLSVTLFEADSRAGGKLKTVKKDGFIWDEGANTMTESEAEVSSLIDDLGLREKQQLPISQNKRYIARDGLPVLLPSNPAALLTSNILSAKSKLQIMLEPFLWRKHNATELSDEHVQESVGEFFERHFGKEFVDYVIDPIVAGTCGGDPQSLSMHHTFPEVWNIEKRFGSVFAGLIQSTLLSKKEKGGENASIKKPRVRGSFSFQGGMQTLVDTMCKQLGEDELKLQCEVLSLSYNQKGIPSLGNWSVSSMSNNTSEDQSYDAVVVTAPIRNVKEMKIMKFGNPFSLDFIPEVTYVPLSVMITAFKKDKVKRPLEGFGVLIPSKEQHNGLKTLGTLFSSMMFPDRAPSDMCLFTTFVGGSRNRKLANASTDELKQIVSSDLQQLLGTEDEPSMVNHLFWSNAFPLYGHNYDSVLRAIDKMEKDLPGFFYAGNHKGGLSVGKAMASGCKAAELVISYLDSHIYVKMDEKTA

[12] = biological target: wild type and amino acid substituted PPO enzyme (Amaranthus tuberculatus, UniProt Q0NZW9, F204I/F457M/L400A/T208S); details: IC50 (M)
[13] = biological target: wild type and amino acid substituted PPO enzyme (Amaranthus tuberculatus, UniProt Q0NZW9, F204I/F457M/T208S); details: IC50 (M)
Chain of wild type and amino acid substituted PPO enzyme (Amaranthus tuberculatus, UniProt Q0NZW9, F204I/F457M/T208S) (Q0NZW9 1-534 F204I/T208S/F457M): as the sequence (Q0NZW9 1-534 F204I/F457M) above, with T208S counted along it

[14] = biological target: wild type and amino acid substituted PPO enzyme (Amaranthus tuberculatus, UniProt Q0NZW9, F204I/L397D/L400A/T208S); details: IC50 (M)
[15] = biological target: wild type and amino acid substituted PPO enzyme (Amaranthus tuberculatus, UniProt Q0NZW9, F204I/L397D/T208S); details: IC50 (M)
[16] = biological target: wild type and amino acid substituted PPO enzyme (Amaranthus tuberculatus, UniProt Q0NZW9, F204I/L400A); details: IC50 (M)
[17] = biological target: wild type and amino acid substituted PPO enzyme (Amaranthus tuberculatus, UniProt Q0NZW9, F204I/L400A/T208S); details: IC50 (M)
[18] = biological target: wild type and amino acid substituted PPO enzyme (Amaranthus tuberculatus, UniProt Q0NZW9, F204I/T208S); details: IC50 (M)
Chain of wild type and amino acid substituted PPO enzyme (Amaranthus tuberculatus, UniProt Q0NZW9, F204I/T208S) (Q0NZW9 1-534 F204I/T208S): as the sequence (Q0NZW9 1-534 F204I/F457M) above, with T208S, M457F counted along it

[19] = biological target: wild type and amino acid substituted PPO enzyme (Amaranthus tuberculatus, UniProt Q0NZW9, F420M/L397A); details: IC50 (M)
[20] = biological target: wild type and amino acid substituted PPO enzyme (Amaranthus tuberculatus, UniProt Q0NZW9, F420M/L397C); details: IC50 (M)
[21] = biological target: wild type and amino acid substituted PPO enzyme (Amaranthus tuberculatus, UniProt Q0NZW9, F420M/L397D); details: IC50 (M)
[22] = biological target: wild type and amino acid substituted PPO enzyme (Amaranthus tuberculatus, UniProt Q0NZW9, F420M/L397S); details: IC50 (M)
[23] = biological target: wild type and amino acid substituted PPO enzyme (Amaranthus tuberculatus, UniProt Q0NZW9, F420M/L397V); details: IC50 (M)
[24] = biological target: wild type and amino acid substituted PPO enzyme (Amaranthus tuberculatus, UniProt Q0NZW9, F420V/F457M); details: IC50 (M)
[25] = biological target: wild type and amino acid substituted PPO enzyme (Amaranthus tuberculatus, UniProt Q0NZW9, F420V/F457M/T208S); details: IC50 (M)
[26] = biological target: wild type and amino acid substituted PPO enzyme (Amaranthus tuberculatus, UniProt Q0NZW9, F420V/L397C); details: IC50 (M)
[27] = biological target: wild type and amino acid substituted PPO enzyme (Amaranthus tuberculatus, UniProt Q0NZW9, F420V/L397Q); details: IC50 (M)
Chain of wild type and amino acid substituted PPO enzyme (Amaranthus tuberculatus, UniProt Q0NZW9, F420V/L397Q) (Q0NZW9 1-534 L397Q/F420V): as the sequence (Q0NZW9 1-534 F204I/F457M) above, with I204F, L397Q, F420V, M457F counted along it

[28] = biological target: wild type and amino acid substituted PPO enzyme (Amaranthus tuberculatus, UniProt Q0NZW9, F420V/L397S); details: IC50 (M)
[29] = biological target: wild type and amino acid substituted PPO enzyme (Amaranthus tuberculatus, UniProt Q0NZW9, F420V/L397T); details: IC50 (M)
[30] = biological target: wild type and amino acid substituted PPO enzyme (Amaranthus tuberculatus, UniProt Q0NZW9, F420V/L397V); details: IC50 (M)
[31] = biological target: wild type and amino acid substituted PPO enzyme (Amaranthus tuberculatus, UniProt Q0NZW9, F420V/R128A/T208S); details: IC50 (M)
[32] = biological target: wild type and amino acid substituted PPO enzyme (Amaranthus tuberculatus, UniProt Q0NZW9, F420V/T208S); details: IC50 (M)
Chain of wild type and amino acid substituted PPO enzyme (Amaranthus tuberculatus, UniProt Q0NZW9, F420V/T208S) (Q0NZW9 1-534 T208S/F420V): as the sequence (Q0NZW9 1-534 F204I/F457M) above, with I204F, T208S, F420V, M457F counted along it

[33] = biological target: wild type and amino acid substituted PPO enzyme (Amaranthus tuberculatus, UniProt Q0NZW9, F457M/L400A); details: IC50 (M)
[34] = biological target: wild type and amino acid substituted PPO enzyme (Amaranthus tuberculatus, UniProt Q0NZW9, F457M/L400A/T208S); details: IC50 (M)
[35] = biological target: wild type and amino acid substituted PPO enzyme (Amaranthus tuberculatus, UniProt Q0NZW9, F457M/T208S); details: IC50 (M)
Chain of wild type and amino acid substituted PPO enzyme (Amaranthus tuberculatus, UniProt Q0NZW9, F457M/T208S) (Q0NZW9 1-534 T208S/F457M): as the sequence (Q0NZW9 1-534 F204I/F457M) above, with I204F, T208S counted along it

[36] = biological target: wild type and amino acid substituted PPO enzyme (Amaranthus tuberculatus, UniProt Q0NZW9, L397D/R128A); details: IC50 (M)
Chain of wild type and amino acid substituted PPO enzyme (Amaranthus tuberculatus, UniProt Q0NZW9, L397D/R128A) (Q0NZW9 1-534 R128A/L397D): as the sequence (Q0NZW9 1-534 F204I/F457M) above, with R128A, I204F, L397D, M457F counted along it

[37] = biological target: wild type and amino acid substituted PPO enzyme (Amaranthus tuberculatus, UniProt Q0NZW9, L397D/T208S); details: IC50 (M)
Chain of wild type and amino acid substituted PPO enzyme (Amaranthus tuberculatus, UniProt Q0NZW9, L397D/T208S) (Q0NZW9 1-534 T208S/L397D): as the sequence (Q0NZW9 1-534 F204I/F457M) above, with I204F, T208S, L397D, M457F counted along it

Chain of wild type and amino acid substituted PPO enzyme (Amaranthus tuberculatus, UniProt Q0NZW5) (Q0NZW5 entry or part of it): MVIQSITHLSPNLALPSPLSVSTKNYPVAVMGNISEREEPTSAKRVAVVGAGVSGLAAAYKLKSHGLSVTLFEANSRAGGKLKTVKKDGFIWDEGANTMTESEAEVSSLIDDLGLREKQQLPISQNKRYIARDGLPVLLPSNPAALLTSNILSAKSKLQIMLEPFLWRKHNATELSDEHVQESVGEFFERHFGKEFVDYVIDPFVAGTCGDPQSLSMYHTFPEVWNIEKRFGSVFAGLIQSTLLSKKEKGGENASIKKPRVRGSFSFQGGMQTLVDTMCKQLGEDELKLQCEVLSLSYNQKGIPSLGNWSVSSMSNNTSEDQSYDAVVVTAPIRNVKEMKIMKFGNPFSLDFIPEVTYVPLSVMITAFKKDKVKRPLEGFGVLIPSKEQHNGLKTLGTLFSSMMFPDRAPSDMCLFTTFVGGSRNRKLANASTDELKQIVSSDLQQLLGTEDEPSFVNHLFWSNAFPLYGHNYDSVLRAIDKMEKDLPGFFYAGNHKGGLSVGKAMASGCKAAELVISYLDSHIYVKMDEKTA

## C#CCN1C(=O)C(F)(F)Oc2cc(F)c(-n3c(=O)n(C)c(=S)n(C)c3=O)cc21
[1]
  IC50: 2.12 nM
[2]
  IC50: 3.69e-08 M
[3]
  IC50: 4.69e-09 M
[4]
  IC50: 2.1e-09 M
[5]
  IC50: 4.05e-07 M
[6]
  IC50: 9.24e-08 M
[7]
  IC50: 4.63e-08 M
[8]
  IC50: 4.72e-09 M
[9]
  IC50: 8.23e-08 M
[10]
  IC50: 3.87e-09 M
[11]
  IC50: 7.52e-11 M
[12]
  IC50: 2.88e-11 M
[13]
  IC50: 4.21e-11 M and 1.7e-10 M
[14]
  IC50: 2.38e-09 M
[15]
  IC50: 5.52e-11 M
[16]
  IC50: 4.57e-11 M
[17]
  IC50: 2.64e-11 M
[18]
  IC50: 1.29e-10 M
[19]
  IC50: 4.53e-09 M
[20]
  IC50: 1.79e-09 M
[21]
  IC50: 2.95e-08 M
[22]
  IC50: 3.33e-09 M
[23]
  IC50: 1.05e-09 M
[24]
  IC50: 1.02e-09 M
[25]
  IC50: 3.41e-09 M
[26]
  IC50: 5.54e-08 M
[27]
  IC50: 1.01e-07 M
[28]
  IC50: 4.26e-08 M
[29]
  IC50: 1.31e-08 M
[30]
  IC50: 1.21e-08 M
[31]
  IC50: 1.25e-08 M
[32]
  IC50: 2.34e-09 M
[33]
  IC50: 1.35e-11 M
[34]
  IC50: 9.68e-12 M
[35]
  IC50: 1.95e-10 M
[36]
  IC50: 5.9e-09 M
[37]
  IC50: 1.25e-10 M

## CC(C)N(C)S(=O)(=O)NC(=O)c1cc(-n2c(=O)cc(C(F)(F)F)n(C)c2=O)c(F)cc1Cl [saflufenacil]
[1]
  IC50: 1600 nM
[11]
  IC50: 1.89e-11 M
[13]
  IC50: 5.11e-11 M
[18]
  IC50: 5.89e-11 M
[21]
  IC50: > 1e-05 M
[27]
  IC50: > 1e-05 M
[31]
  IC50: > 1e-05 M
[32]
  IC50: 8.48e-07 M
[35]
  IC50: 1.02e-10 M
[36]
  IC50: ≥ 1e-05 M
[37]
  IC50: 4.08e-07 M
